Values belong to the molecule of their own block, whether it stands above or below them.
Target: human KDR protein in HEK-293 cells (Homo sapiens (Human), UniProt P35968)
Experiment: KDR Cell Assay (phospho-KDR in HEK-293 cells expressing inducible KDR)
Type: cell-based
Details: pKDR Cell HEK 10% FBS IC50, HEK-293 cells expressing inducible KDR, VEGF stimulated
How it was run: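 HEK-293 cells with inducible human KDR were treated with compound for 1 h in DMEM (0.25% DMSO final), then lysed. Phospho-KDR was quantified by Meso Scale immunoassay, expressed as percent of control, and IC50 taken where a 4-parameter logistic fit crossed 50 POC.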

human KDR protein in HEK-293 cells, sequence (P35968 20-1356): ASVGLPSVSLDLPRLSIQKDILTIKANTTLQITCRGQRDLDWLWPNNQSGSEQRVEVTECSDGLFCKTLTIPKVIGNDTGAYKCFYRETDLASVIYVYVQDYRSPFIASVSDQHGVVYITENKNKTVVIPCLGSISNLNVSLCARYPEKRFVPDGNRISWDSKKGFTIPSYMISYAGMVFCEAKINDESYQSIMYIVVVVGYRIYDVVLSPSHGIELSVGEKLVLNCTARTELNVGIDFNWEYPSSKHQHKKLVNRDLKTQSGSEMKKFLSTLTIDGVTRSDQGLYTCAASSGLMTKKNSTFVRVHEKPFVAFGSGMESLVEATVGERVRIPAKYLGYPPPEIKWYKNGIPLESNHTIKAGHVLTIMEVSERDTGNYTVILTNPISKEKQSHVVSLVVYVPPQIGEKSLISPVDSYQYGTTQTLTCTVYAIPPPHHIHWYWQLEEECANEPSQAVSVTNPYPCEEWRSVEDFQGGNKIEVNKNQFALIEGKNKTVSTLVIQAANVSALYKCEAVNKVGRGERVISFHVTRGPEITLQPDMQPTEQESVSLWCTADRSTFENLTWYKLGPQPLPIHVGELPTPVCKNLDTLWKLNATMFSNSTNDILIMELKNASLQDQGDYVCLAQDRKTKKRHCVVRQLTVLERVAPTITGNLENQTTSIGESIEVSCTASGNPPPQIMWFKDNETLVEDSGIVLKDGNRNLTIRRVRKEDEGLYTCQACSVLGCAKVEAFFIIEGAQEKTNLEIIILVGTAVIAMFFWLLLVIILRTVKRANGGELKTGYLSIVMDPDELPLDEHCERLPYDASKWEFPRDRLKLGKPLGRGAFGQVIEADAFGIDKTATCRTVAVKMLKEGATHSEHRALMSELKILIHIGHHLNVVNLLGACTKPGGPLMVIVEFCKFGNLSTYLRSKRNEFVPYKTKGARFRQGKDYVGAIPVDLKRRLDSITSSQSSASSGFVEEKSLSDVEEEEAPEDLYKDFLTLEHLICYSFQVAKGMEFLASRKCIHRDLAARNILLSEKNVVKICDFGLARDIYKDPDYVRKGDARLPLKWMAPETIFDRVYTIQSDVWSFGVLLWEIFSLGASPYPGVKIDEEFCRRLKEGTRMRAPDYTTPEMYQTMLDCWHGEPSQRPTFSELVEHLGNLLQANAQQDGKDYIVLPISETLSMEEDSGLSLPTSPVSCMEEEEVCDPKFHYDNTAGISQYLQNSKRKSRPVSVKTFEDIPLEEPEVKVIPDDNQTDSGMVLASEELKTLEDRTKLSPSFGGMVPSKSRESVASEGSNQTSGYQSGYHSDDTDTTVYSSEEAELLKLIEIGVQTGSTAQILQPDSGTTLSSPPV

SMILES: Cc1cncc(CN2CCN(c3ccc(-c4cc(-c5cnn(C)c5)cn5ncc(C#N)c45)cn3)CC2)n1 [Example 431, 6-(1-methyl-1H-pyrazol-4-yl)-4-(6-(4-((6-methylpyrazin-2-yl)methyl)piperazin-l-yl)pyridin-3-yl)pyrazolo[1,5-a]pyridine-3-carbonitrile]
IC50: 1500 nM

SMILES: COc1ccc(CN2CCN(c3ccc(-c4cc(-c5cnn(C)c5)cn5ncc(C#N)c45)cn3)CC2)cc1 [Example 432, 4-(6-(4-(4-methoxybenzyl)piperazin-1-yl)pyridin-3-yl)-6-(1-methyl-1H-pyrazol-4-yl)pyrazolo[1,5-a]pyridine-3-carbonitrile]
IC50: 263 nM

SMILES: Cn1cc(-c2cc(-c3ccc(N4CCN(Cc5ccncc5F)CC4)nc3)c3c(C#N)cnn3c2)cn1 [Example 434, 4-(6-(4-((3-fluoropyridin-4-yl)methyl)piperazin-1-yl)pyridin-3-yl)-6-(1-methyl-1H-pyrazol-4-yl)pyrazolo[1,5-a]pyridine-3-carbonitrile]
IC50: 1700 nM

SMILES: Cc1c(CN2CCN(c3ccc(-c4cc(-c5cnn(C)c5)cn5ncc(C#N)c45)cn3)CC2)cnn1C [Example 435, 4-(6-(4-((1,5-dimethyl-1H-pyrazol-4-yl)methyl)piperazin-1-yl)pyridin-3-yl)-6-(1-methyl-1H-pyrazol-4-yl)pyrazolo[1,5-a]pyridine-3-carbonitrile]
IC50: 1330 nM

SMILES: Cc1cc(CN2CCN(c3ccc(-c4cc(-c5cnn(C)c5)cn5ncc(C#N)c45)cn3)CC2)no1 [Example 436, 6-(1-methyl-1H-pyrazol-4-yl)-4-(6-(4-((5-methylisoxazol-3-yl)methyl)piperazin-1-yl)pyridin-3-yl)pyrazolo[1,5-a]pyridine-3-carbonitrile]
IC50: 536 nM

SMILES: Cn1cc(-c2cc(-c3ccc(N4CCN(Cc5nccn5C)CC4)nc3)c3c(C#N)cnn3c2)cn1 [Example 437, 4-(6-(4-((1-methyl-1H-imidazol-2-yl)methyl)piperazin-1-yl)pyridin-3-yl)-6-(1-methyl-1H-pyrazol-4-yl)pyrazolo[1,5-a]pyridine-3-carbonitrile]
IC50: 1970 nM

SMILES: Cc1cccnc1CN1CCN(c2ccc(-c3cc(-c4cnn(C)c4)cn4ncc(C#N)c34)cn2)CC1 [Example 438, 6-(1-methyl-1H-pyrazol-4-yl)-4-(6-(4-((3-methylpyridin-2-yl)methyl)piperazin-1-yl)pyridine-3-yl)pyrazolo[1,5-a]pyridine-3-carbonitrile]
IC50: 1990 nM

SMILES: Cn1cc(-c2cc(-c3ccc(N4CCN(Cc5ccn(C)n5)CC4)nc3)c3c(C#N)cnn3c2)cn1 [Example 439, 4-(6-(4-((1-methyl-1H-pyrazol-3-yl)methyl)piperazin-l-yl)pyridin-3-yl)-6-(1-methyl-1H-pyrazol-4-yl)pyrazolo[1,5-a]pyridine-3-carbonitrile]
IC50: 1240 nM

SMILES: Cc1nn(C)cc1CN1CCN(c2ccc(-c3cc(-c4cnn(C)c4)cn4ncc(C#N)c34)cn2)CC1 [Example 440, 4-(6-(4-((1,3-dimethyl-1H-pyrazol-4-yl)methyl)piperazin-1-yl)pyridine-3-yl)-6-(1-methyl-1H-pyrazol-4-yl)pyrazolo[1,5-a]pyridine-3-carbonitrile]
IC50: 1690 nM

SMILES: Cn1cc(-c2cc(-c3ccc(N4CCN(Cc5c(F)cccc5F)CC4)nc3)c3c(C#N)cnn3c2)cn1 [Example 441, 4-(6-(4-(2,6-difluorobenzyl)piperazin-1-yl)pyridine-3-yl)-6-(1-methyl-1H-pyrazol-4-yl)pyrazolo[1,5-a]pyridine-3-carbonitrile]
IC50: 576 nM

SMILES: COc1cncc(CN2CCN(c3ccc(-c4cc(-c5cnn(C)c5)cn5ncc(C#N)c45)cn3)CC2)c1 [Example 442, 4-(6-(4-((5-methoxypyridin-3-yl)methyl)piperazin-1-yl)pyridine-3-yl)-6-(1-methyl-1H-pyrazol-4-yl)pyrazolo[1,5-a]pyridine-3-carbonitrile]
IC50: 1670 nM

SMILES: Cc1ccnc(CN2CCN(c3ccc(-c4cc(-c5cnn(C)c5)cn5ncc(C#N)c45)cn3)CC2)c1 [Example 443, 6-(1-methyl-1H-pyrazol-4-yl)-4-(6-(4-((4-methylpyridin-2-yl)methyl)piperazin-1-yl)pyridine-3-yl)pyrazolo[1,5-a]pyridine-3-carbonitrile]
IC50: 653 nM

SMILES: Cc1cnc(CN2CCN(c3ccc(-c4cc(-c5cnn(C)c5)cn5ncc(C#N)c45)cn3)CC2)cn1 [Example 444, 6-(1-methyl-1H-pyrazol-4-yl)-4-(6-(4-((5-methylpyrazin-2-yl)methyl)piperazin-1-yl)pyridin-3-yl)pyrazolo[1,5-a]pyridine-3-carbonitrile]
IC50: 1290 nM

SMILES: CC(C)n1cc(CN2CCN(c3ccc(-c4cc(-c5cnn(C)c5)cn5ncc(C#N)c45)cn3)CC2)cn1 [Example 445, 4-(6-(4-((1-isopropyl-1H-pyrazol-4-yl)methyl)piperazin-1-yl)pyridin-3-yl)-6-(1-methyl-1H-pyrazol-4-yl)pyrazolo[1,5-a]pyridine-3-carbonitrile]
IC50: 1660 nM

SMILES: CCn1cc(CN2CCN(c3ccc(-c4cc(-c5cnn(C)c5)cn5ncc(C#N)c45)cn3)CC2)cn1 [Example 446, 4-(6-(4-((1-ethyl-1H-pyrazol-4-yl)methyl)piperazin-1-yl)pyridin-3-yl)-6-(1-methyl-1H-pyrazol-4-yl)pyrazolo[1,5-a]pyridine-3-carbonitrile]
IC50: 1470 nM

SMILES: Cn1cc(-c2cc(-c3ccc(N4CCN(Cc5cc(F)cc(F)c5)CC4)nc3)c3c(C#N)cnn3c2)cn1 [Example 447, 4-(6-(4-(3,5-difluorobenzyl)piperazin-1-yl)pyridin-3-yl)-6-(1-methyl-1H-pyrazol-4-yl)pyrazolo[1,5-a]pyridine-3-carbonitrile]
IC50: 668 nM

SMILES: Cn1cc(CN2CCN(c3ccc(-c4cc(-c5cnn(C)c5)cn5ncc(C#N)c45)cn3)CC2)cn1 [Example 448, 6-(1-methyl-1H-pyrazol-4-yl)-4-(6-(4-((1-methyl-1H-pyrazol-4-yl)methyl)piperazin-1-yl)pyridin-3-yl)pyrazolo[1,5-a]pyridine-3-carbonitrile]
IC50: 1720 nM

SMILES: Cn1cnc(CN2CCN(c3ccc(-c4cc(-c5cnn(C)c5)cn5ncc(C#N)c45)cn3)CC2)c1 [Example 449, 4-(6-(4-((1-methyl-1H-imidazol-4-yl)methyl)piperazin-1-yl)pyridin-3-yl)-6-(1-methyl-1H-pyrazol-4-yl)pyrazolo[1,5-a]pyridine-3-carbonitrile]
IC50: 1340 nM

SMILES: COc1cccc(CN2CCN(c3ccc(-c4cc(-c5cnn(C)c5)cn5ncc(C#N)c45)cn3)CC2)c1 [Example 450, 4-(6-(4-(3-methoxybenzyl)piperazin-1-yl)pyridin-3-yl)-6-(1-methyl-1H-pyrazol-4-yl)pyrazolo[1,5-a]pyridine-3-carbonitrile]
IC50: 467 nM

Results, then the molecule that gave them:

IC50: 1680 nM
SMILES: Cn1cc(-c2cc(-c3ccc(N4CCN(Cc5cnccn5)CC4)nc3)c3c(C#N)cnn3c2)cn1 [Example 453]

IC50: 698 nM
SMILES: Cn1cc(-c2cc(-c3ccc(N4CCN(Cc5ccccc5Cl)CC4)nc3)c3c(C#N)cnn3c2)cn1 [Example 454, 4-(6-(4-(2-chlorobenzyl)piperazin-1-yl)pyridin-3-yl)-6-(1-methyl-1H-pyrazol-4-yl)pyrazolo[1,5-a]pyridine-3-carbonitrile]

IC50: 464 nM
SMILES: Cn1cc(-c2cc(-c3ccc(N4CCN(Cc5cccc(Cl)c5)CC4)nc3)c3c(C#N)cnn3c2)cn1 [Example 455, 4-(6-(4-(3-chlorobenzyl)piperazin-1-yl)pyridin-3-yl)-6-(1-yl)methyl-1H-pyrazol-4-pyrazolo[1,5-a]pyridine-3-carbonitrile]

IC50: ≥ 5000 nM
SMILES: Cn1cc(-c2cc(-c3ccc(N4CCN(CC5CC(F)(F)C5)CC4)nc3)c3c(C#N)cnn3c2)cn1 [Example 459, 4-(6-(4-((3,3-difluorocyclobutyl)methyl)piperazin-l-yl)pyridin-3-yl)-6-(1-methyl-1H-pyrazol-4-yl)pyrazolo[1,5-a]pyridine-3-carbonitrile]

IC50: 1780 nM
SMILES: CN(C)c1ccccc1CN1CCN(c2ccc(-c3cc(-c4cnn(C)c4)cn4ncc(C#N)c34)cn2)CC1 [Example 460, 4-(6-(4-(2-(dimethylamino)benzyl)piperazin-1-yl)pyridin-3-yl)-6-(1-methyl-1H-pyrazol-4-yl)pyrazolo[1,5-a]pyridine-3-carbonitrile]

IC50: 129 nM
SMILES: CN(C)c1ccc(CN2CCN(c3ccc(-c4cc(-c5cnn(C)c5)cn5ncc(C#N)c45)cn3)CC2)cc1 [Example 461, 4-(6-(4-(4-(dimethylamino)benzyl)piperazin-1-yl)pyridin-3-yl)-6-(1-methyl-1H-pyrazol-4-yl)pyrazolo[1,5-a]pyridine-3-carbonitrile]

IC50: 804 nM
SMILES: Cn1cc(-c2cc(-c3ccc(N4CCN(Cc5ccc(F)cn5)CC4)nc3)c3c(C#N)cnn3c2)cn1 [Example 462, 4-(6-(4-((5-fluoropyridin-2-yl)methyl)piperazin-1-yl)pyridin-3-yl)-6-(1-methyl-1H-pyrazol-4-yl)pyrazolo[1,5-a]pyridine-3-carbonitrile]

IC50: 2160 nM
SMILES: Cn1cc(-c2cc(-c3ccc(N4CCN(CC5CCOCC5)CC4)nc3)c3c(C#N)cnn3c2)cn1 [Example 466, 6-(1-methyl-1H-pyrazol-4-yl)-4-(6-(4-((tetrahydro-2H-pyran-4-yl)methyl)piperazin-l-yl)pyridin-3-yl)pyrazolo[1,5-a]pyridine-3-carbonitrile]

IC50: 1540 nM
SMILES: Cc1nccc(CN2CCN(c3ccc(-c4cc(-c5cnn(C)c5)cn5ncc(C#N)c45)cn3)CC2)n1 [Example 467, 6-(1-methyl-1H-pyrazol-4-yl)-4-(6-(4-((2-methylpyrimidin-4-yl)methyl)piperazin-l-yl)pyridin-3-yl)pyrazolo[1,5-a]pyridine-3-carbonitrile]

IC50: 1580 nM
SMILES: Cn1cc(-c2cc(-c3ccc(N4CCN(Cc5cccnc5)CC4)nc3)c3c(C#N)cnn3c2)cn1 [Example 471, 6-(1-methyl-1H-pyrazol-4-yl)-4-(6-(4-(pyridin-3-ylmethyl)piperazin-1-yl)pyridine-3-yl)pyrazolo[1,5-a]pyridine-3-carbonitrile]

From US10023570B2 (Array BioPharma, Inc., priority 2015, dated 2018)
